These results are taken from ChEMBL document CHEMBL5465560, “Selectivity Literature for EUbOPEN Chemogenomic Library” (2024).

Each structure is given as a SMILES string. Bounds are passed on as bounds.

The target of assay [1] is NT-3 growth factor receptor (Homo sapiens, UniProt Q16288). In words: Selectivity interaction (Ambit KINOMEscan and KiNATiv profiling in Jurkat cells) EUB0000090b NTRK3. As to conditions: at 1 µM. It is filed as cell-based.
In assay [2] the target is Serine/threonine-protein kinase 38-like (Homo sapiens) (UniProt Q9Y2H1). Kind of assay: Selectivity interaction (KinomeScan (DiscoverX)) EUB0000092b STK38L. As to conditions: at 10 µM.
For assay [3], the target named is Dual specificity testis-specific protein kinase 1 (Homo sapiens) (UniProt Q15569). Kind of assay: Selectivity interaction (KinomeScan (DiscoverX)) EUB0000092b TESK1. As to conditions: at 10 µM.
Assay [4] has as its target Calcium/calmodulin-dependent protein kinase type II subunit alpha (Homo sapiens, UniProt Q9UQM7). In words: Selectivity interaction (KinomeScan (DiscoverX)) EUB0000092b CAMK2A. As to conditions: at 10 µM.
The target of assay [5] is Protein arginine N-methyltransferase 5 (Homo sapiens, UniProt O14744). Kind of assay: Selectivity interaction (Scintillation proximity assays) EUB0000255b PRMT5. (Scintillation proximity formats need no separation of bound from free tracer.)
The target of assay [6] is Cyclin-dependent kinase 5 (Homo sapiens, UniProt Q00535). In words: Selectivity interaction (Kinase screening (Nanosyn)) EUB0000604a CDK5.
Assay [7] has as its target Tyrosine-protein kinase Lyn (Homo sapiens, UniProt P07948). In words: Selectivity interaction (Kinase screening (Upstate/Millipore)) EUB0000604a LYN.
Assay [8] deals with T1, Serine/threonine-protein kinase ULK1 (Homo sapiens) (UniProt O75385).
T1 sequence (whole entry): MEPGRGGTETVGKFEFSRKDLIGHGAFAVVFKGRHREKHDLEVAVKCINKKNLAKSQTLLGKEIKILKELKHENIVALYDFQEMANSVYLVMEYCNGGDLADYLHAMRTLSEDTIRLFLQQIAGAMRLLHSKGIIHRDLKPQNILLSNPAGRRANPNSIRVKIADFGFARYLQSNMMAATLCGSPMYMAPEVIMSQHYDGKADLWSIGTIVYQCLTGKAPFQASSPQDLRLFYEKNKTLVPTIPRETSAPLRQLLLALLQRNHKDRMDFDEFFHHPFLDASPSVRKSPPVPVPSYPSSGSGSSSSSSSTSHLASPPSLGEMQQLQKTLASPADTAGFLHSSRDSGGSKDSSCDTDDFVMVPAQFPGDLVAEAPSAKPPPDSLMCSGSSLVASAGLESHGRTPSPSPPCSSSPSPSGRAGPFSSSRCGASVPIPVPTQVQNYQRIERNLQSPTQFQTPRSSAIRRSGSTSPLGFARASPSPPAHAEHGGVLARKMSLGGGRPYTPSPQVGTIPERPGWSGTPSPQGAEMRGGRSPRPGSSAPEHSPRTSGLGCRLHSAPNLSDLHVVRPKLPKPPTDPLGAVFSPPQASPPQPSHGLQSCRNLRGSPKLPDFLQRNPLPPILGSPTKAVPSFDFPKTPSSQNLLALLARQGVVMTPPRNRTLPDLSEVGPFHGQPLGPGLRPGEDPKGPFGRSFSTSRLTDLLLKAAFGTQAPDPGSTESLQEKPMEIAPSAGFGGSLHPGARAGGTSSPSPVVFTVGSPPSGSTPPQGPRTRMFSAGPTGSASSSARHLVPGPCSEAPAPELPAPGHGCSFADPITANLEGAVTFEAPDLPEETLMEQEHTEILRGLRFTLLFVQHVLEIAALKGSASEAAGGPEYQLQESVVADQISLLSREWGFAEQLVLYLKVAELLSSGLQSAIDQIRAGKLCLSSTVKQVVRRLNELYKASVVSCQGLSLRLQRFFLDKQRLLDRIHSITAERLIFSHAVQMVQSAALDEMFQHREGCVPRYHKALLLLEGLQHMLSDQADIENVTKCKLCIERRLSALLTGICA
In words: Selectivity interaction (LanthaScreen Eu Kinase Binding Assay) EUB0001632a ULK1. As to conditions: at 10 µM. On the technique in general: TR-FRET usually uses a lanthanide donor and a delayed reading to cut background.

In assay [9] the target is Histone-lysine N-methyltransferase KMT5C (Homo sapiens) (UniProt Q86Y97). As to conditions: at 10 µM.
Assay [10] addresses Mitogen-activated protein kinase 4 (Homo sapiens) (UniProt P31152). Kind of assay: Selectivity interaction (KinomeScan (DiscoverX)) EUB0000229b MAPK4. To be noted: at 10 µM.
For assay [11], the target named is T2, Mitogen-activated protein kinase kinase kinase 2 (Homo sapiens) (UniProt Q9Y2U5).
T2 sequence (whole entry): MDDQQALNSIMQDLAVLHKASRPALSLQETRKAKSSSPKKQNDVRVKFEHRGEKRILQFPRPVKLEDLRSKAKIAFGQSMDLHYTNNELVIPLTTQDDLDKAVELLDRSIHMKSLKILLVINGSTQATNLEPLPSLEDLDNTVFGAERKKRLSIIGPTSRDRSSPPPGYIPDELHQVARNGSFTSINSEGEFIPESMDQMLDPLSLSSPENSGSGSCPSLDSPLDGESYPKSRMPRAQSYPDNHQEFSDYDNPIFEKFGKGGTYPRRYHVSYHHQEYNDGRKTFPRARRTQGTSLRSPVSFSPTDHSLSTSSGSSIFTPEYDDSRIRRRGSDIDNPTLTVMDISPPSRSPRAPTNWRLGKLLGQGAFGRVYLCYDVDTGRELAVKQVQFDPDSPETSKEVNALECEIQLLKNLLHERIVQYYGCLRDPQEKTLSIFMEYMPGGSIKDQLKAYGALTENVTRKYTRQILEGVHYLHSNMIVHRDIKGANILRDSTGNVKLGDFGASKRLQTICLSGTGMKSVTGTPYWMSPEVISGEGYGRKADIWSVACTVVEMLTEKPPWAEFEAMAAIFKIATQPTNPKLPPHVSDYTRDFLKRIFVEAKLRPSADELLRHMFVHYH
Kind of assay: Selectivity interaction (ActivX KiNativ screen (ex vivo kinase selectivity in human PBMCs)) EUB0001619a MAP3K2. Type of assay: cell-based. To be noted: PBMC, at 1 µM.

For assay [12], the target named is T3, Phosphorylase b kinase gamma catalytic chain, liver/testis isoform (Homo sapiens) (UniProt P15735).
T3 sequence (whole entry): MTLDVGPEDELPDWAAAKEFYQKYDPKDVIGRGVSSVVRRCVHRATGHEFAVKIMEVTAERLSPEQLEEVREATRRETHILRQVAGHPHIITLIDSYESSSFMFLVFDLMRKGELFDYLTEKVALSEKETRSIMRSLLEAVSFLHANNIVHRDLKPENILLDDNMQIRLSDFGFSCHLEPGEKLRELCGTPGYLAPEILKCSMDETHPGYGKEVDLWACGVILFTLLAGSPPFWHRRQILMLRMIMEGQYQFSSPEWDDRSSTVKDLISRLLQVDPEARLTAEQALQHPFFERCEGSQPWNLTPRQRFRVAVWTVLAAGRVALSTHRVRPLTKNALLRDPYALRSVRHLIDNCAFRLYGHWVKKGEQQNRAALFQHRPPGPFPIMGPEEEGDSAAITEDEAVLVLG
In words: Selectivity interaction (KinomeScan (DiscoverX)) EUB0001619a PHKG2. To be noted: at 1 µM.

Sequence of Dual specificity testis-specific protein kinase 1 (Homo sapiens) (Q15569 whole entry, looked up): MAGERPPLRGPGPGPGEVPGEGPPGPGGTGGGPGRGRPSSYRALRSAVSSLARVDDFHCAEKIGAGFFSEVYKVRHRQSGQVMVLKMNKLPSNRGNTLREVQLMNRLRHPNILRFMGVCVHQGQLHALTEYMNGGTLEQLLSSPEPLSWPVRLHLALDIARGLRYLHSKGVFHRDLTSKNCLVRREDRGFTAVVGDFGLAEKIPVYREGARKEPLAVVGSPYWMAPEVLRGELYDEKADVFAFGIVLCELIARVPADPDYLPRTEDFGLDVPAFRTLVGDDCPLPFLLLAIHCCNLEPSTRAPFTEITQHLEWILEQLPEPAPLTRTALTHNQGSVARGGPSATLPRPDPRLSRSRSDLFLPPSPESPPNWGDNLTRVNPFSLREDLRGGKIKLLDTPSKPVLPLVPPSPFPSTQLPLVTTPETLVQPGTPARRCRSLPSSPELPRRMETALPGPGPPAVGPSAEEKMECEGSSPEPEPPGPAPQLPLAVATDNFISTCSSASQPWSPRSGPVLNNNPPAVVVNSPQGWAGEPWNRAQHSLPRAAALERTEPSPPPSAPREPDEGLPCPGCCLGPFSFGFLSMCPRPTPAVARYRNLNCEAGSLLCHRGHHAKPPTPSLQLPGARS
Sequence of Calcium/calmodulin-dependent protein kinase type II subunit alpha (Q9UQM7 whole entry): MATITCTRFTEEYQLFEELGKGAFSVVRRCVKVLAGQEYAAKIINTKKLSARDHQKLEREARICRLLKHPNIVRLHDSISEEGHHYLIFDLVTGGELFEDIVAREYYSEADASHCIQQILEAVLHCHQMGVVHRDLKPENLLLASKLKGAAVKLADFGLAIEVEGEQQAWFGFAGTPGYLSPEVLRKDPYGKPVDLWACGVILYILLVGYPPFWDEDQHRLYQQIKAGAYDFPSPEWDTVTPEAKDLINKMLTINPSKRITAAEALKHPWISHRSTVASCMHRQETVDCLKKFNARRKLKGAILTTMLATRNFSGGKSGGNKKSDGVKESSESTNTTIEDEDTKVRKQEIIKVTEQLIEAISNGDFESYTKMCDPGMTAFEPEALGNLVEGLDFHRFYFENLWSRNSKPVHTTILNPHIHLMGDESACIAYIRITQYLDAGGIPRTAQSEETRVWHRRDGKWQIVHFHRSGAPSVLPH
Sequence of Tyrosine-protein kinase Lyn (P07948 2-512 limits assumed): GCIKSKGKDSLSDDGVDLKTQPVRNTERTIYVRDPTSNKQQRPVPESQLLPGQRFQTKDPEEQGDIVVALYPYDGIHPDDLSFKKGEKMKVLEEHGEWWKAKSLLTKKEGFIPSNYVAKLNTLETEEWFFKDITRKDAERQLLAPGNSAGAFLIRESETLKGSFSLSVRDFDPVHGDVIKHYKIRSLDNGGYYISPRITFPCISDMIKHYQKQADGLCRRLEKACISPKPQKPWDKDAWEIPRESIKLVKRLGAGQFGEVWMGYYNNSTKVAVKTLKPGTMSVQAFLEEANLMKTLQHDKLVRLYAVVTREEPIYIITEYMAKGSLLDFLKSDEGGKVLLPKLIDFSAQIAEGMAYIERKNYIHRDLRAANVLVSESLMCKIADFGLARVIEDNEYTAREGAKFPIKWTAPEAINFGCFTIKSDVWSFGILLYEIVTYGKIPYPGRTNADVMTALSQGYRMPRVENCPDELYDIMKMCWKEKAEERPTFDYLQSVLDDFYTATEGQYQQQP
Sequence of NT-3 growth factor receptor (Q16288 32-839 limits assumed): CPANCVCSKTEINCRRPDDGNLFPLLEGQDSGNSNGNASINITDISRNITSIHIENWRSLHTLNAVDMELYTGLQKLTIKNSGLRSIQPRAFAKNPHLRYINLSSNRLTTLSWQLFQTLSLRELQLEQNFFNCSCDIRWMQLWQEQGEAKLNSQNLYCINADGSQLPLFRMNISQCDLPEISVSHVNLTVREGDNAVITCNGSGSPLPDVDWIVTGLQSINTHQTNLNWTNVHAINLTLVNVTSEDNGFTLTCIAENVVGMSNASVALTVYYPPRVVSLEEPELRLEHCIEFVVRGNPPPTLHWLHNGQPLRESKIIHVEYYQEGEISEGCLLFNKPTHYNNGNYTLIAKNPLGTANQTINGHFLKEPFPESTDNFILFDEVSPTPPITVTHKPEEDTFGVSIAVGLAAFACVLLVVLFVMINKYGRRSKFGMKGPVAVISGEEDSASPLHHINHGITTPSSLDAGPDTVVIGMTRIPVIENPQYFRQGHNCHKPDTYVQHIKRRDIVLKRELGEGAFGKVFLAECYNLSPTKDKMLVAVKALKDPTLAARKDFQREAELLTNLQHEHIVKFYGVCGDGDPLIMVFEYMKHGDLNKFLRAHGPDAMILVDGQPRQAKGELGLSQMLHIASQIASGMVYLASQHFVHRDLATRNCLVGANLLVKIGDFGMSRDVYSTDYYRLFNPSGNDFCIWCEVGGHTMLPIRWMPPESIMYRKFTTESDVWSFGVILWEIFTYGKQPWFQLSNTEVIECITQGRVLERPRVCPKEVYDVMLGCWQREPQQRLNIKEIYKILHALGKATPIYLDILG
Sequence of Histone-lysine N-methyltransferase KMT5C (Homo sapiens) (Q86Y97 whole entry, looked up): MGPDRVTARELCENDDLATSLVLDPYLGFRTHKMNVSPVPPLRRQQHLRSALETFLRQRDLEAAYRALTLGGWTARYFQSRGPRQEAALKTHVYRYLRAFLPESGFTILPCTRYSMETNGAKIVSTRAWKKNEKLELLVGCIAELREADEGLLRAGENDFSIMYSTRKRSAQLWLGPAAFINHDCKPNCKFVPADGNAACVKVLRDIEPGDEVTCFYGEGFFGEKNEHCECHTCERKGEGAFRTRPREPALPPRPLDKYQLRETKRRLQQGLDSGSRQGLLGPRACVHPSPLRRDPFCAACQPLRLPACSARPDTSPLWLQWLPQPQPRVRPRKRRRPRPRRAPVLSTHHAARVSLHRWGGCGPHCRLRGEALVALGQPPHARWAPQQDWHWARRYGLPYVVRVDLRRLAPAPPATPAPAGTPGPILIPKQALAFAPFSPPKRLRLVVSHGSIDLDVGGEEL
Sequence of Protein arginine N-methyltransferase 5 (O14744 whole entry): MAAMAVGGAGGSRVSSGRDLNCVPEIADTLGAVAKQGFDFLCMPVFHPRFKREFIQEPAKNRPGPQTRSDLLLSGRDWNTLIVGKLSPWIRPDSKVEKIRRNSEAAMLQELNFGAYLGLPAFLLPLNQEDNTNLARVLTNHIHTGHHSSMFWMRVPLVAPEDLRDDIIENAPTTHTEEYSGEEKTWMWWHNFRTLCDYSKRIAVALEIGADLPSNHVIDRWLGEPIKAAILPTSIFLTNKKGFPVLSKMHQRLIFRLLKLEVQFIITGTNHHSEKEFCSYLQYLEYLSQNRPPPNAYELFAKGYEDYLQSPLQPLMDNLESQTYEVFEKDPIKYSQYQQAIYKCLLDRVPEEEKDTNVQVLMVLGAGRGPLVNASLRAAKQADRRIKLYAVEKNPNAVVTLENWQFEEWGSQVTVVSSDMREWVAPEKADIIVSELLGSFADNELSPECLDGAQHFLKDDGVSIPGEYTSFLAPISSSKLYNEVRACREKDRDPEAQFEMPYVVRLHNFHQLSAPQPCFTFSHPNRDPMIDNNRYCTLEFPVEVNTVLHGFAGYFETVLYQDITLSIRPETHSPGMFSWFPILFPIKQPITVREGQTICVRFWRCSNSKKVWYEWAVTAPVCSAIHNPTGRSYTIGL
Sequence of Mitogen-activated protein kinase 4 (Homo sapiens) (P31152 whole entry): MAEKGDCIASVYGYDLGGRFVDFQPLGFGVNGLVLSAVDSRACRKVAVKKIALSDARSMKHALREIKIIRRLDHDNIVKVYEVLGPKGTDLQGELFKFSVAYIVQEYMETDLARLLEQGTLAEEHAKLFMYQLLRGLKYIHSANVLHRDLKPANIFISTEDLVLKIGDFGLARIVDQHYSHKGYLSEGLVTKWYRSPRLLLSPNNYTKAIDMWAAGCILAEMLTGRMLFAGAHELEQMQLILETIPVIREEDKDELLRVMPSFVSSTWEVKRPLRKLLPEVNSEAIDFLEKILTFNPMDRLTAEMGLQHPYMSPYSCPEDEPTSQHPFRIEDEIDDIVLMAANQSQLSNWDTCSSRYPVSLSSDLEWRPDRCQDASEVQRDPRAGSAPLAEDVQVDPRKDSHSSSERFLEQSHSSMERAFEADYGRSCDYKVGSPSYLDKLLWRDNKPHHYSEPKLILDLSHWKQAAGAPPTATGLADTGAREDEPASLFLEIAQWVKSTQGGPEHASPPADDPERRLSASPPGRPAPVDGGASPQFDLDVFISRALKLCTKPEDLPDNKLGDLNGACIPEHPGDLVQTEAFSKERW
Sequence of Cyclin-dependent kinase 5 (Q00535 whole entry, looked up): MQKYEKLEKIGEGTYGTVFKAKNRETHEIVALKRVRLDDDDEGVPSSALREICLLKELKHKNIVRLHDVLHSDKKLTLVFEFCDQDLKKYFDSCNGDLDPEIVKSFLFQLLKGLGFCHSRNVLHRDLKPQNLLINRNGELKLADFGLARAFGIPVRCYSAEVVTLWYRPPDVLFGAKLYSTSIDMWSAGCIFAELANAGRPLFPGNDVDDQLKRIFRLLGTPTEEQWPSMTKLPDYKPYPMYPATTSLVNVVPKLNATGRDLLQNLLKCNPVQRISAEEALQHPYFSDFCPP
Sequence of Serine/threonine-protein kinase 38-like (Homo sapiens) (Q9Y2H1 2-464 limits assumed): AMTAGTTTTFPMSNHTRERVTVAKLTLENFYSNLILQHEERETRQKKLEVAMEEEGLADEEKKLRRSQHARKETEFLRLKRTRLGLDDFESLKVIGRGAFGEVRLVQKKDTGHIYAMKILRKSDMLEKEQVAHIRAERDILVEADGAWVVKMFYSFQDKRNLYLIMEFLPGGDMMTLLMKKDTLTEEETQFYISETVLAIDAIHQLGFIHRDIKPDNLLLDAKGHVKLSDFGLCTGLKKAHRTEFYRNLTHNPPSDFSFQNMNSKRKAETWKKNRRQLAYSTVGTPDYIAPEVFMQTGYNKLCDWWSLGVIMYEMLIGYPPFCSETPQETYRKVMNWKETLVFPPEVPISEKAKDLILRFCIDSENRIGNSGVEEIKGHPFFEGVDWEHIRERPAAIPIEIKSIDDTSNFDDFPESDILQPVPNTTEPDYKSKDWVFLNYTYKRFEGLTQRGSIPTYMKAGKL

Turning to `CN(C)C/C=C/C(=O)Nc1ccc(C(=O)N2CCCC(Nc3ncc(Cl)c(-c4c[nH]c5ccccc45)n3)C2)cc1` (configuration not stated), the % of control in assay [1] was determined as 81%. As for `CCC(=O)N1CCN(c2ccc(-n3c(=O)ccc4cnc5ccc(-c6cnc7ccccc7c6)cc5c43)cc2C(F)(F)F)CC1`, the % of control in assay [2] turned out to be 94%; in [3] it was 58%; in assay [4], 93%. Molecule `COCCN1CCC(c2cc(CN(C)C(=O)c3cccc(Oc4ccccc4)c3)ccn2)CC1` came in with a 50% inhibitory concentration (IC50) in assay [5] of more than 10 µM. For the molecule `Cc1cnc(Nc2ccc(F)cc2Cl)nc1-c1c[nH]c(C(=O)N[C@H](CO)c2cccc(Cl)c2)c1`, the % of inhibition in [6] came out at 24%; in assay [7] it was 7%. Consider `Cn1cc(-n2cnc3c(NCc4nc5cc(Cl)c(Cl)cc5[nH]4)nc(N4CCOCC4)nc32)cn1`, for which the % of inhibition in assay [8] was -7.27%. In assay [9], `CNCCN1CCC(c2cc(CN(C)C(=O)c3cccc(Oc4ccccc4)c3)ccn2)CC1` had a % activity of more than 90%. With `COc1cc(N(C)c2ccnc3ccc(C(F)(F)F)cc23)cc(OC)c1OC`, the % binding in assay [10] amounted to 93%. With `N#Cc1cccc(-c2c[nH]c3ncnc(N4CCOCC4)c23)c1`, the % of inhibition in assay [11] is 22%. For the same molecule, in assay [12], the % of control came out at 40%.

As a reminder, the IC50 is the point on the concentration scale where inhibition reaches its midpoint. Read a low IC50 as greater potency in that assay.
